According to US20050215555A1, “Inhibitors of 5-HT2A receptor” (priority 2003, published 2005):

What was measured:
5-HT1A = molecular target: T1, 5-HT1A (Homo sapiens, UniProt P08908); experiment: Radioligand displacement binding (3H-8-OH-DPAT), SPA or filter binding; conditions: recombinant human receptor
T1 construct: expressed in transfected cells; host or cells: CHO or HEK293
T1 sequence (P08908 1-422): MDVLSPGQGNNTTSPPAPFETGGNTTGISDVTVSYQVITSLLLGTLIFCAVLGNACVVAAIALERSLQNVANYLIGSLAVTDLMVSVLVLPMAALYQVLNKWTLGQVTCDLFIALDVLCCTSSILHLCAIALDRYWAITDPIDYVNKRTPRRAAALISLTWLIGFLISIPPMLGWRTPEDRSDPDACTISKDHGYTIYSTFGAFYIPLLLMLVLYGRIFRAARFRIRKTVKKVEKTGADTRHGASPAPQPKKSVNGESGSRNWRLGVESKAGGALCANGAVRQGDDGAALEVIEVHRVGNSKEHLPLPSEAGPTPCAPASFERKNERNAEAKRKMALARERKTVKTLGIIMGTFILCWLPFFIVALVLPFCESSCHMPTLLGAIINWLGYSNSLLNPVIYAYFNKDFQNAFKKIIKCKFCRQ
Procedure: (§1) The affinity constants of compounds were determined using recombinant human serotonin receptors stably expressed in fibroblast cell lines (CHO or HEK293), measuring the ability of the compounds to displace radio-labelled tracers using scintillation proximity assays or filter binding assays. For 5-HT1B , 5-HT2B and 5-HT2C receptor binding studies ^3H-LSD was used as radio ligand, for 5-HT2 A and 5-HT6 ^3H-5-HT was used as tracer, while the binding constant to 5-HT1A was determined using ^3H-8-OH-DPAT. The non-selective serotonin receptor antagonist mianserine was used as reference substance.
(§2) The calculation of the Ki values for the inhibitors was performed by use of Activity Base. The Ki value is calculated from IC50 using the Cheng Prushoff equation (with reversible inhibition that follows the Michaelis-Menten equation): […] [Cheng, Y. C.; Prushoff, W. H. Biochem. Pharmacol. 1973, 22, 3099-3108].

5-HT1B = molecular target: T2, 5-HT1B (Homo sapiens, UniProt P28222); experiment: Radioligand displacement binding (3H-LSD), SPA or filter binding; conditions: recombinant human receptor
T2 construct: expressed in transfected cells; host or cells: CHO or HEK293
T2 sequence (P28222 whole entry): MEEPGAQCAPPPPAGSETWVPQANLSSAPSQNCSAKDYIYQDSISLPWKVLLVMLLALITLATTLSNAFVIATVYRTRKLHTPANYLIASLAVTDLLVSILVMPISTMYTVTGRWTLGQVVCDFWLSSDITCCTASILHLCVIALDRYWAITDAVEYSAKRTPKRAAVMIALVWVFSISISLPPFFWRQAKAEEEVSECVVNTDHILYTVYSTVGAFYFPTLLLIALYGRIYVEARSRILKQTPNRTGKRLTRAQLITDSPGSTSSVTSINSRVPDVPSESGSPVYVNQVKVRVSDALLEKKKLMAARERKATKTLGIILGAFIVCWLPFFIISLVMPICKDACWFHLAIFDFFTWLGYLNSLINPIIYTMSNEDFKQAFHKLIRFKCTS
Procedure: as §1, §2

5-HT2B = molecular target: T3, 5-HT2B (Homo sapiens, UniProt P41595); experiment: as above; conditions: recombinant human receptor
T3 construct: expressed in transfected cells; host or cells: CHO or HEK293
T3 sequence (P41595 whole entry): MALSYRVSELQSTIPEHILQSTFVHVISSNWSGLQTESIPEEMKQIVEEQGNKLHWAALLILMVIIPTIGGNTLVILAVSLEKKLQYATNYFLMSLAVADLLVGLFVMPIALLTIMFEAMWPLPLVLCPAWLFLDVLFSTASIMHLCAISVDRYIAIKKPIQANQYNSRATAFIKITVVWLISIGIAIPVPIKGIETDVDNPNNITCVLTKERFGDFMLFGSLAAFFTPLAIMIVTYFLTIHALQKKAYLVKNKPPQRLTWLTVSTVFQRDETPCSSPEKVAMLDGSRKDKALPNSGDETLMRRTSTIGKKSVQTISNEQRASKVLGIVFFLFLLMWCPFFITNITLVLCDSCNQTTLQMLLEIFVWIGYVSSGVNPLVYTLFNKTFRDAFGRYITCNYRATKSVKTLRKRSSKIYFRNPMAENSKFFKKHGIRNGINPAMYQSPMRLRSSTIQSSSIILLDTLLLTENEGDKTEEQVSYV
Procedure: as §1, §2

5-HT6 = molecular target: T4, 5-HT6 (Homo sapiens, UniProt P50406); experiment: Radioligand displacement binding (3H-5-HT), SPA or filter binding; conditions: recombinant human receptor
T4 construct: expressed in transfected cells; host or cells: CHO or HEK293
T4 sequence (P50406 whole entry): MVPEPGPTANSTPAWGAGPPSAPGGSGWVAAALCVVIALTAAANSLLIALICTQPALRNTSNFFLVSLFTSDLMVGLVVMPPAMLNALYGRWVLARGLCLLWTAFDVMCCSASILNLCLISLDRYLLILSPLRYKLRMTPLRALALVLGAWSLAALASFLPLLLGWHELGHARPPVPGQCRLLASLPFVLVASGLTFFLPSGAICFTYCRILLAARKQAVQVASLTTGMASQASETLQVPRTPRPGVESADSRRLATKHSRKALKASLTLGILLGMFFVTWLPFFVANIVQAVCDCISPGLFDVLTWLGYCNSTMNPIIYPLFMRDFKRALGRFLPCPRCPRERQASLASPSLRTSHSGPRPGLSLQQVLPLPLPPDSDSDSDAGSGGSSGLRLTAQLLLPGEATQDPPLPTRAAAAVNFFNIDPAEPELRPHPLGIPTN
Procedure: as §1, §2

5-HT2C [1] = molecular target: T5, 5-HT2C (Homo sapiens, UniProt P28335); experiment: FLIPR based assay, effect on 10 nM 5-HT induced Ca2+-currents; format: cell-based; conditions: functional FLIPR assays
T5 sequence (P28335 33-458): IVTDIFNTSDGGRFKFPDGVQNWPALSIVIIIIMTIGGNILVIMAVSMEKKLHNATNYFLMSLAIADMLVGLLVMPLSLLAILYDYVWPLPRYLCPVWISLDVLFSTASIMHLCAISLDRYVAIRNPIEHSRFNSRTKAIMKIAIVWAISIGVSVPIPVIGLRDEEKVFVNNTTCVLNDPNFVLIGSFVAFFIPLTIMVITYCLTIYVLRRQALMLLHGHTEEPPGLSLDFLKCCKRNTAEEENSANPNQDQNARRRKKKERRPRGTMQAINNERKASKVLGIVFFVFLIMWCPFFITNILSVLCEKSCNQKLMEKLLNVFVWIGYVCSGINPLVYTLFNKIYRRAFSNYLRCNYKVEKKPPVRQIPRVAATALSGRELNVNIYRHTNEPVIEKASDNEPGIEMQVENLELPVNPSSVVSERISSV
Procedure: The activity at 5-HT2C receptors was studied in a FLIPR based assay, measuring the effect of compounds on 10 nM 5-HT induced Ca^2+-currents.

5-HT2A [2] = molecular target: T6, 5-HT2A (Homo sapiens, UniProt P28223); experiment: FLIPR functional assay (primary screening and IC50 determination), inhibition of 5-HT evoked peak response; format: cell-based; parameters: expressed in transfected cells; host or cells: CHO; conditions: CHO cells expressing 5-HT2A, 15 min pre-incubation, Ki calculated from IC50 (Cheng Prushoff)
T6 sequence (P28223 whole entry): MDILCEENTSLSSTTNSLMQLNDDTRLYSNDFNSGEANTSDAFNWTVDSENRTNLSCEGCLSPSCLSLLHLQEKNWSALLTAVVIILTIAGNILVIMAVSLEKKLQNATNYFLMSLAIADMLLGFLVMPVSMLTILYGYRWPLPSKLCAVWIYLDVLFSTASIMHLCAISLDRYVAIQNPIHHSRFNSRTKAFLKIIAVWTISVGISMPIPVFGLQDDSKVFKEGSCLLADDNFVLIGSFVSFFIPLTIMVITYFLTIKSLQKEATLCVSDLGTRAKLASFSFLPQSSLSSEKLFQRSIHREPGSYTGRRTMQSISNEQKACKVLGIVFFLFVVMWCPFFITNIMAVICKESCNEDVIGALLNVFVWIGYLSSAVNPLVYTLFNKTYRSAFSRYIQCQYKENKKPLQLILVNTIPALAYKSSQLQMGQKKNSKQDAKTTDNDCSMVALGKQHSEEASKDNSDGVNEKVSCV
Procedure: Primary screening and IC50 determination
CHO cells expressing 5-HT2A receptors seeded in 384 well plates are pre-loaded with Fluo-4AM fluorescent dye and then incubated with compound (10 μM for primary screen) for 15 min. Fluorescent intensity is recorded using a Fluorometric imaging plate reader (FLIPR384, Molecular Devices) and inhibition of the peak response evoked by 5-HT (EC70 concentration) is calculated.
IC50 determinations are performed utilizing the same finctional assay as described for primary screening (15 min antagonist compound pre-incubation), applying the compounds in the dose range of 3 nM to 10 μM.
as §2

5-HT2C [3] = molecular target: T5, 5-HT2C; experiment: Radioligand displacement binding (3H-LSD), SPA or filter binding; parameters: expressed in transfected cells; host or cells: CHO or HEK293; conditions: recombinant human receptor
Procedure: as §1, §2

5-HT2A [4] = molecular target: T6, 5-HT2A; experiment: Radioligand displacement binding (3H-5-HT), SPA or filter binding; parameters: expressed in transfected cells; host or cells: CHO or HEK293
Procedure: as §1, §2

[5] = equilibrium displacement binding, n=3, unit inferred, read-out: Ki values for the 5-HT2A receptor subtype
[6] = recombinant human receptor, 3H-5-HT, read-out: Binding Ki (nM) 5-HT2A

Row | Compound | Ki (5-HT1A) [nM] | Ki (5-HT1B) [nM] | Ki (5-HT2B) [nM] | Ki (5-HT6) [nM] | selectivity at 5-HT2A versus the 5-HT2C receptor in terms of efficacy (5-HT2C [1]) | Ki (5-HT2A [2]) [nM] | Ki (5-HT2C [3]) [nM] | Ki (5-HT2A [4]; [5]) [nM] | Ki (5-HT2A [4]; [6]) [nM]
1 | c1ccc(CCN2CCC(c3nc(-c4ccccc4)c4ccccn34)CC2)cc1 [Example 2] | > 1000 | > 1000 | 444 | > 1000 | highly selective | 20.6 | > 1000 | 6 | 5.9
2 | Cc1ccn2c(C3CCN(CCc4ccccc4)CC3)nc(-c3ccccc3)c2c1 [Example 4, 7-methyl-1-phenyl-3-[1-(2-phenylethyl)piperidin-4-yl]imidazo[1,5-a]pyridine] | > 1000 | > 1000 | 267 | > 1000 | highly selective | 8.2 | > 1000 | 14 | 13.6
